Consider 6 compounds from PMC3556730 (Neuropharmacology, 2011).

The target of test [1] is T1, 5-HT2AR (Homo sapiens, UniProt P28223). The following applies: for Effect on 5-HT-induced 5-HT2AR-IP3 production / Effect on DOI-induced 5-HT2AR-IP3 production: co-expressing cells, D2R agonist 10^−5 M; for Emax (inositol phosphate production): HEK-5HT2AR-D2R, mean ± SEM.
The target of test [2] is 5-HT2AR (Mus musculus, UniProt P35363). Put plainly: [3H]Ketanserin competition binding, mouse striatum membranes.
5-HT2AR (Mus musculus, UniProt P35363), sequence (P35363 whole entry): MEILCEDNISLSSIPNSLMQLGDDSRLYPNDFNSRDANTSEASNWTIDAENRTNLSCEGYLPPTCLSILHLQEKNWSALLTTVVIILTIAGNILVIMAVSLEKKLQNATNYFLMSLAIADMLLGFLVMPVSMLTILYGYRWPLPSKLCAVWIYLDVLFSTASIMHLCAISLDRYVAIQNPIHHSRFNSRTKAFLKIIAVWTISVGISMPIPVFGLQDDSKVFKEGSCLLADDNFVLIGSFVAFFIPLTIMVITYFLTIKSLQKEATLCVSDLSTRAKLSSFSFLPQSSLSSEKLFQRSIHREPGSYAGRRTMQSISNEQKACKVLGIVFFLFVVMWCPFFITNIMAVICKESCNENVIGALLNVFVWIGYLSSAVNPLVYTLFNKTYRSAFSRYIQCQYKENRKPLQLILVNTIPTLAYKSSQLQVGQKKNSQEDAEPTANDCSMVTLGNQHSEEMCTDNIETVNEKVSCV
For test [3], the target named is T1, 5-HT2AR.
Test [4] concerns MK-801-induced locomotor activity. Kind of test: MK-801-induced locomotor activity in wild-type and 5-HT2AR-KO mice. The test is classed as in vivo. The following applies: MK-801 0.5 mg/kg i.p.; wild-type and 5-HT2AR-KO mice (similar).
In test [5] the target is T1, 5-HT2AR. Particulars: HEK-5HT2AR; vehicle; mean ± SEM.
For test [6], the target named is T1, 5-HT2AR. The following applies: HEK-5HT2AR.
Where [7] appears, read: mouse striatum, with quinpirole (10^−5 M).

Read-outs that look alike come from different tables or passages of the source.

T1 sequence (P28223 whole entry): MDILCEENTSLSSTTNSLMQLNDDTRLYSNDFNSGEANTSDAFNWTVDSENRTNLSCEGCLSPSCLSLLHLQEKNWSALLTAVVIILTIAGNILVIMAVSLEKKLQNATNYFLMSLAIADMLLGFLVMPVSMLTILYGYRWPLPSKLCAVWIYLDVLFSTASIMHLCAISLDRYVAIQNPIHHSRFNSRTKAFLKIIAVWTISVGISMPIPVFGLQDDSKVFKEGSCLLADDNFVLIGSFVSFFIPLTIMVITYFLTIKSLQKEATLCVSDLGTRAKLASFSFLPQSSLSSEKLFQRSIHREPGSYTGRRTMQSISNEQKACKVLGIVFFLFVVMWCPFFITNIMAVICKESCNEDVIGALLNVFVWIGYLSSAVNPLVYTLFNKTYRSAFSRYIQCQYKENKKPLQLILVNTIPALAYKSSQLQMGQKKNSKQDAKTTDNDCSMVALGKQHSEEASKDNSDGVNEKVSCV

With `CCCN(CCC)CCc1cccc2c1CC(=O)N2` [ropinirole], at 5-HT2AR [1], the “Effect on 5-HT-induced 5-HT2AR-IP3 production” value is “have no effect” and the “Effect on DOI-induced 5-HT2AR-IP3 production” value is recorded as “decrease”.
Turning to `CCN1CCC[C@H]1CNC(=O)c1c(O)c(Cl)cc(Cl)c1OC` [raclopride], at 5-HT2AR [2] (setting [7]), the “Effect on quinpirole-enhanced DOI affinity for 5-HT2AR” value was “prevents the enhanced effect”.
With `CCCN1CCC[C@@H]2Cc3n[nH]cc3C[C@H]21` [quinpirole], at 5-HT2AR [1], the “Effect on 5-HT-induced 5-HT2AR-IP3 production” value is on record as “have no effect” and the “Effect on DOI-induced 5-HT2AR-IP3 production” value was “decrease”. Also, the “Effect on affinity of DOI for 5-HT2AR” value on 5-HT2AR [3] (HEK293 co-expressing 5-HT2AR and D2R, modulator 10^−5 M) is given as “marked increase”. Also, the “Effect on affinity of DOI for 5-HT2AR” value at 5-HT2AR [2] (mouse striatum, modulator 10^−5 M) is recorded as “significantly higher”.
As for `C[C@]12N[C@H](Cc3ccccc31)c1ccccc12` [MK-801, dizocilpine], the Locomotor activity result in test [4] is recorded as “increased locomotor activity”.
As for `NCCc1c[nH]c2ccc(O)cc12` [5-HT, serotonin], the “Emax (inositol phosphate production)” value at 5-HT2AR [1] (vehicle) was found to be 608 ± 12 cpm; on 5-HT2AR [1] (with quinpirole (10^−5 M)), 589 ± 22 cpm; at 5-HT2AR [1] (with ropinirole (10^−5 M)) it was 564 ± 47 cpm; at 5-HT2AR [5] it was 647 ± 74 cpm.
In general, Ki refers to the equilibrium dissociation constant of an inhibitor or competing ligand from its target. Consider `COc1cc(CC(C)N)c(OC)cc1I` (racemic) [DOI, (+/−)-2,5-dimethoxy-4-iodoamphetamine], for which the “% High (percentage of high-affinity binding sites)” value stood at 46 ± 3% on 5-HT2AR [3] (HEK-5HT2AR-D2R, with quinpirole (10^−5 M)); 44 ± 2% on 5-HT2AR [2] (setting [7]); 41 ± 5% on 5-HT2AR [6] (vehicle); 48% at 5-HT2AR [6] (with quinpirole (10^−5 M)). For the same compound, the Ki on 5-HT2AR [2] (Fig. 1C single experiment, control, one-site model) was determined as 95 nM; on 5-HT2AR [2] (Fig. 1D single experiment, control, one-site model) it was 3300 nM; at 5-HT2AR [2] (read-out: Ki-high, mouse striatum, with quinpirole (10^−5 M), two-site model, mean ± SEM), 0.065 nM; at 5-HT2AR [2] (read-out: Ki-low, mouse striatum, vehicle, one-site model, mean ± SEM), 250 nM; on 5-HT2AR [2] (read-out: Ki-low, mouse striatum, with quinpirole (10^−5 M) + raclopride (10^−6 M), one-site model, mean ± SEM) it was 690 nM; at 5-HT2AR [2] (read-out: Ki-low, mouse striatum, with quinpirole (10^−5 M), two-site model, mean ± SEM) it was 510 nM. The Ki at 5-HT2AR [2] (read-out: Ki-low, mouse striatum, with raclopride (10^−6 M), one-site model, mean ± SEM) came to 660 nM.
